Results taken from patent US11926618B2, “Halogen-substituted phenylate compound and applications thereof” (HINOVA PHARMACEUTICALS INC., priority 2019, dated 2024).
Where two headings read alike, the source gives them in different places.

Columns and labels:
[1] = Pharmacokinetic test in ICR mice, plasma concentration by LC/MS/MS; type: in vivo; conditions: for AUC(0-inf): read-out: Exposure AUCinf
Method: • Polyethylene glycol 400 (PEG400), manufacturer: Chengdu Kelong Chemical Reagent Factory; • Hydroxypropyl 3-cyclodextrin (HP-β-CD), manufacturer: Shanghai Dibai Chemical Technology Co., Ltd.; • HPC LF, manufacturer: Chengdu Yuannuo Tiancheng Technology Co., Ltd.; • Heparin sodium, manufacturer: Chengdu Kelong Chemical Reagent Factory. • Experimental animals: ICR mice (Chengdu Dossy Experimental Animals CO., LTD.) 2) Experimental Method
Preparation of Test Compound Solution
IV group: 1.15 mg of test compound was accurately weighed, and then DMA (0.228 ml) was added to dissolve the compound, to which were successively added PEG400 (1.139 ml) and 0.1 M of phosphate buffer (5.012 ml). Finally, 40% HP-B-CD was added to the final volume of 11.39 ml. The solution was thoroughly mixed by ultrasonic vortex. A clear solution at the concentration of 0.1 mg/ml was prepared.
PO group: 5.06 mg of test compound was precisely weighed, and then 2% HPC LF (containing 0.1% Tween-80) was added to the final volume of 20.04 ml. The solution was mixed by ultrasound, to prepare a uniform suspension at the concentration of 0.25 mg/ml.
After fasting overnight (free drinking water), nine adult ICR mice (3 mice for each time point) were administered by injection via tail vein and by gavage, respectively. For IV group, 5 min, 15 min, 0.5 h, 1 h, 2 h, 4 h, 8 h, 12 h and 24 h after administration, 0.1 ml of blood was collected from the submandibular vein, centrifuged at 4° C. for 5 min to separate the plasma, and stored at −20° C. for detection. For PO group, before administration and 0.5 h, 1 h, 2 h, 4 h, 6 h, 8 h, 12 h and 24 h after administration, 0.1 ml of blood was collected from the submandibular vein, and the processing was the same as that of IV group.
Then, the concentration of original drug in plasma was determined by LC/MS/MS. The plasma concentration-time curve was plotted, and the main pharmacokinetic parameters were calculated with WinNonlin 6.3 software (see Table 2).

THR-α = target: T1, THR-α (Homo sapiens, UniProt P10827); assay: Agonistic activity on THR-α (TRα-LBD/RXRα, biotin-SRC2-2 recruitment, fluorescence ratio 665 nm/615 nm); type: biochemical; conditions: for Agonistic activity for THR-α compared to control compound MGL-3196: in words, versus MGL-3196
T1 construct: A mixed solution of 4× TRα-LBD or TRβ-LBD and 4× RXRα was prepared
Method: (§1) 100× solutions of reference compounds or compounds were prepared with DMSO and then diluted in a 1:3 equal ratio. The gradient dilution of 100× reference compound or compound was further diluted to 4× with 1× reaction buffer and then added to the test plate. A mixed solution of 4× TRα-LBD or TRβ-LBD and 4× RXRα was prepared with 1× reaction buffer and added to the test plate. […] The plate was centrifuged at 1000 rpm for 1 min and then incubated at room temperature and in the dark for 4 h.

THR-β = target: T2, THR-β (Homo sapiens, UniProt P10828); assay: Agonistic activity on THR-β (TRβ-LBD/RXRα, biotin-SRC2-2 recruitment, fluorescence ratio 665 nm/615 nm); type: biochemical; conditions: for Agonistic activity for THR-β compared to control compound MGL-3196: in words, versus MGL-3196; for Selectivity THR-β/THR-α: THR-α EC50 ÷ THR-β EC50
T2 construct: A mixed solution of 4× TRα-LBD or TRβ-LBD and 4× RXRα was prepared
Method: as §1

T1 sequence (P10827 163-410 isoform P10827-2 limits assumed, other chains not shown): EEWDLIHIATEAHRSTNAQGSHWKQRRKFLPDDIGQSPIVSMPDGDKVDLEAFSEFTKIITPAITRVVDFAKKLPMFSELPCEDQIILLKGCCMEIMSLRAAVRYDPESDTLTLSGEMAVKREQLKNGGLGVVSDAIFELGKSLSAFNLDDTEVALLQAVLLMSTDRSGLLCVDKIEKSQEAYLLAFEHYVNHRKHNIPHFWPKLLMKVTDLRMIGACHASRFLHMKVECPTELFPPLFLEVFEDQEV
T1 sequence (P19793 whole entry partner, other chains not shown, the tested form may be a part): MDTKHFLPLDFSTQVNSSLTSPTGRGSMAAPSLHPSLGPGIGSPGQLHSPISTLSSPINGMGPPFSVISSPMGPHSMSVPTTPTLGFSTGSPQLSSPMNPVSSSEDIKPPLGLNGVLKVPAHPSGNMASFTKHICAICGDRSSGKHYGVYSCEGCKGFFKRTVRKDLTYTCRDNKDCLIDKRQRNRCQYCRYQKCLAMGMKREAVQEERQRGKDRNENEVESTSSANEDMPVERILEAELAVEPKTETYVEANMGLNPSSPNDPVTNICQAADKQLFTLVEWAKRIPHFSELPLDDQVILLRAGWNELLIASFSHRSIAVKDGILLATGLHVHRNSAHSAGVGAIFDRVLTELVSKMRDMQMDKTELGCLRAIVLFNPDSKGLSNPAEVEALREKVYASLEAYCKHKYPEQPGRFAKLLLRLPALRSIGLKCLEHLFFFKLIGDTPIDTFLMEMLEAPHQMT
T2 sequence (P10828 217-461 limits assumed, other chains not shown): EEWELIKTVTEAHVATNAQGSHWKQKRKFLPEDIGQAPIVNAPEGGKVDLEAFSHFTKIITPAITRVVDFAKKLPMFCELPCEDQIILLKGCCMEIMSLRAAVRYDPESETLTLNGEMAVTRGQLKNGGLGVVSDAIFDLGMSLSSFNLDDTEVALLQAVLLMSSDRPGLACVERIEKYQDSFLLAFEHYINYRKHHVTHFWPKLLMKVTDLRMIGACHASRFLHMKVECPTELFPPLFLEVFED
T2 sequence (P19793 whole entry partner, other chains not shown, the tested form may be a part): as the sequence (P19793 whole entry partner, other chains not shown, the tested form may be a part) above

SMILES	AUC(0-inf) ([1]; ICR, mouse, plasma, dosage 5 mg/kg, route not given)	Peak time Tmax ([1]; dosage 5 mg/kg, route not given)	EC50 (THR-α)	EC50 (THR-β)	Agonistic activity for THR-β compared to control compound MGL-3196 (THR-β)	Agonistic activity for THR-α compared to control compound MGL-3196 (THR-α)	Selectivity THR-β/THR-α (THR-β)	AUC(0-inf) ([1]; ICR, mouse, plasma, dosage 2 mg/kg, route not given)	half-life ([1]; ICR, mouse, plasma, dosage 2 mg/kg, route not given, read-out: Half-life T1/2 (converted))	Cmax ([1]; ICR, mouse, plasma, dosage 2 mg/kg, route not given, read-out: Peak concentration Cmax)	Tmax ([1]; ICR, mouse, plasma, dosage 2 mg/kg, route not given, read-out: Peak time Tmax)	Half-life compared to MGL-3196 ([1]; compound at a lower dose, in words)
CC(C)c1cc(Oc2c(Cl)cc(-n3nc(C#N)c(=O)[nH]c3=O)cc2Cl)n[nH]c1=O [MGL-3196, reference compound]	9360 ng·h/mL	2 h	–	–	–	–	–	–	–	–	–	–
[2H]c1c(Oc2c(Cl)cc(-n3nc(C#N)c(=O)[nH]c3=O)cc2Br)n[nH]c(=O)c1C(C([2H])([2H])[2H])C([2H])([2H])[2H] [Compound 3, 2-(3-bromo-5-chloro-4-((4-deutero-5-(1,1,1,3,3,3-hexadeuteropropyl-2-yl)-6-oxo-1,6-dihydropyrazin-3-yl)oxy)phenyl)-3,5-dioxy-2,3,4,5-tetrahydro-1,2,4-triazine-6-nitrile]	–	–	1330 nM	60 nM	significantly higher agonistic activities	–	–	–	–	–	–	–
[2H]c1c(Oc2c(Br)cc(-n3nc(C#N)c(=O)[nH]c3=O)cc2Br)n[nH]c(=O)c1C(C([2H])([2H])[2H])C([2H])([2H])[2H] [Compound 15, 2-(3,5-dibromo-4-((6-oxo-5-(propan-2-yl-1,1,1,3,3,3-d6)-1,6-dihydropyridazin-3-yl-4-d)oxy)phenyl)-3,5-dioxy-2,3,4,5-tetrahydro-1,2,4-triazine-6-nitrile]	–	–	349 nM	19 nM	significantly higher agonistic activities	significantly higher agonistic activities	18	–	–	–	–	–
[2H]C([2H])([2H])C(c1cc(Oc2c(Br)cc(-n3nc(C#N)c(=O)[nH]c3=O)cc2Br)n[nH]c1=O)C([2H])([2H])[2H] [Compound 14]	–	–	326 nM	27 nM	significantly higher agonistic activities	significantly higher agonistic activities	12	–	–	–	–	–
CC(C)c1cc(Oc2c(Br)cc(-n3nc(C#N)c(=O)[nH]c3=O)cc2Br)n[nH]c1=O [Compound 13, 2-(3,5-Dibromo-4-((5-isopropyl-6-oxo-1,6-dihydropyridazin-3-yl)oxy)phenyl)-3,5-dioxy-2,3,4,5-tetrahydro-1,2,4-triazine-6-nitrile]	–	–	800 nM	30 nM	significantly higher agonistic activities	significantly higher agonistic activities	27	–	–	–	–	–
[2H]C([2H])([2H])C(c1cc(Oc2c(Cl)cc(-n3nc(C#N)c(=O)[nH]c3=O)cc2Br)n[nH]c1=O)C([2H])([2H])[2H] [Compound 2, 2-(3-bromo-5-chloro-4-((5-di(trideuteromethyl)methyl-6-oxo-1,6-dihydropyridazine-3-yl)oxy)phenyl)-3,5-dioxo-2,3,4,5-tetrahydro-1,2,4-triazine-6-nitrile]	–	–	1060 nM	52 nM	–	–	–	9260 ng·h/mL	5.25 h	960 ng/mL	4 h	longer
CC(C)c1cc(Oc2c(Cl)cc(-n3nc(C#N)c(=O)[nH]c3=O)cc2Br)n[nH]c1=O [Compound 1, 2-(3-bronco-5-chloro-4-((5-isopropyl-6-oxo-1,6-dihydropyridazin-3-yl)oxy)phenyl)-3,5-dioxo-2,3,4,5-tetrahydro-1,2,4-triazine-6-nitrile]	–	–	1020 nM	57 nM	significantly higher agonistic activities	significantly higher agonistic activities	–	–	–	–	–	–
